# Data from patent US20260166128A1, “HUMAN AMYLIN ANALOG, AND DERIVATIVE THEREOF AND USE THEREOF” (priority 2022, published 2026).
# Numbered stars: 1 amine (or outer) side, 2 acyl side, 3 side chain; on linkers, the order of the positions; unused ones are H or OH. Bridge positions count the residues as written; N and C are the ends. Square brackets hold non-standard residues; d marks the D form. Peptide text beside a SMILES is read from it. * marks the point of attachment. C20 diacid = O=C(O)CCCCCCCCCCCCCCCCCCC(=O)*; γGlu = O=C(O)[C@H](CCC(=O)[*:2])N[*:1]; βAsp = O=C(O)[C@H](CC(=O)[*:2])N[*:1]; Hyp = O=C(O)[C@@H]1C[C@@H](O)CN1; AEEA = NCCOCCOCC(=O)O; Inp = O=C(O)C1CCNCC1
# Target: T1, human amylin receptor (Homo sapiens, UniProt O60896+P30988)
# T1 construct: host or cells: CHO-K1/Ga15/AMY3 cells, further stably transfected with a CRE-luciferase plasmid
# T1 sequence (P30988 25-474): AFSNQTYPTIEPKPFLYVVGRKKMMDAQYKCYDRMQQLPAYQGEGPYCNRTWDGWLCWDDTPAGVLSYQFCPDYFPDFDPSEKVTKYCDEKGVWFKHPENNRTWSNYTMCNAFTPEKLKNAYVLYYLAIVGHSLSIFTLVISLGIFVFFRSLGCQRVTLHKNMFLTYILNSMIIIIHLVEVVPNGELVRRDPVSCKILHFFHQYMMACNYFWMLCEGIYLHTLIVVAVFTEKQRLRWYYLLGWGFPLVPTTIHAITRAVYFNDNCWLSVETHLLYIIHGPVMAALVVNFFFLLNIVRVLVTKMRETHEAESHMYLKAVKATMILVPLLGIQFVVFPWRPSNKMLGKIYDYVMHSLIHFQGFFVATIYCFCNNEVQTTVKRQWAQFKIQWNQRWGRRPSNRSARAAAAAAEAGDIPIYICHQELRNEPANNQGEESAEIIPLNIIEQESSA
# T1 sequence (O60896 24-148 partner): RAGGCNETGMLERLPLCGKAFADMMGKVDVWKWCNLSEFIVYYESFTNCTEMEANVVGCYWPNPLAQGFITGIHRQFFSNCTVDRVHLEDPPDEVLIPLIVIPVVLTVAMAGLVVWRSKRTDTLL
# Assay: Luciferase assay of amylin derivatives in amylin receptor/CRE-luc CHO cell line
# Format: cell-based
# Settings: CHO-K1/Ga15/AMY3 CRE-luc cells, 24 hours incubation, F12 medium containing 10% FBS; read-out: EC50
# Protocol: The experiment was intended to detect the activity or efficacy of the amylin derivatives on a human amylin receptor in vitro by luciferase assay.
# 50 μL of growth medium (F12 medium containing 10% FBS) was added into each well of a white 96-well plate, and the stably transfected amylin/CRE-lue CHO cells were inoculated into the white 96-well plate at a density of about 20,000 cells/well for activity determination.
row,EC50 [nM],Compound
1,0.037,CC[C@H](C)[C@H](NC(=O)[C@@H]1CCCN1C(=O)[C@H](CCCCN)NC(=O)[C@H](CC(C)C)NC(=O)[C@H](CC(N)=O)NC(=O)[C@H](CC(N)=O)NC(=O)[C@H](CO)NC(=O)[C@H](CO)NC(=O)[C@H](Cc1c[nH]cn1)NC(=O)[C@H](CCCNC(=N)N)NC(=O)[C@H](CC(C)C)NC(=O)[C@H](Cc1ccccc1)NC(=O)[C@H](CC(=O)O)NC(=O)[C@H](C)NC(=O)[C@H](CC(C)C)NC(=O)[C@H](CCCNC(=N)N)NC(=O)[C@H](CCC(N)=O)NC(=O)[C@@H](NC(=O)[C@H](C)NC(=O)[C@@H]1CSSC[C@H](NC(=O)[C@H](CCCCN)NC(=O)C[C@H](NC(=O)COCCOCCNC(=O)COCCOCCNC(=O)CCCCCCCCCCCCCCCCCCC(=O)O)C(=O)O)C(=O)N[C@@H](CC(N)=O)C(=O)N[C@@H]([C@@H](C)O)C(=O)N[C@@H](C)C(=O)N[C@@H]([C@@H](C)O)C(=O)N1)[C@@H](C)O)C(=O)N[C@@H](CC(C)C)C(=O)N1CCC[C@H]1C(=O)N1CCC[C@H]1C(=O)N[C@H](C(=O)N[C@@H](CC(N)=O)C(=O)N[C@H](C(=O)NCC(=O)N[C@@H](CO)C(=O)N[C@@H](CC(N)=O)C(=O)N[C@H](C(=O)N1C[C@H](O)C[C@H]1C(N)=O)[C@@H](C)O)C(C)C)[C@@H](C)O [PD184] ({C20 diacid-AEEA-AEEA-βAsp}-KCNTATCATQRLADFLRHSSNNLKPILPPTNVGSNT[Hyp]-NH2; disulfide 2-7 (inferred))
2,0.025,CC[C@H](C)[C@H](NC(=O)[C@@H]1CCCN1C(=O)[C@H](CCCCN)NC(=O)[C@H](CC(C)C)NC(=O)[C@H](CC(N)=O)NC(=O)[C@H](CC(N)=O)NC(=O)[C@H](CO)NC(=O)[C@H](CO)NC(=O)[C@H](Cc1c[nH]cn1)NC(=O)[C@H](CCCNC(=N)N)NC(=O)[C@H](CC(C)C)NC(=O)[C@H](Cc1ccccc1)NC(=O)[C@H](CC(=O)O)NC(=O)[C@H](C)NC(=O)[C@H](CC(C)C)NC(=O)[C@H](CCCNC(=N)N)NC(=O)[C@H](CCC(N)=O)NC(=O)[C@@H](NC(=O)[C@H](C)NC(=O)[C@@H]1CSSC[C@H](NC(=O)[C@H](CCCCN)NC(=O)CC[C@H](NC(=O)COCCOCCNC(=O)COCCOCCNC(=O)CCCCCCCCCCCCCCCCCCC(=O)O)C(=O)O)C(=O)N[C@@H](CC(N)=O)C(=O)N[C@@H]([C@@H](C)O)C(=O)N[C@@H](C)C(=O)N[C@@H]([C@@H](C)O)C(=O)N1)[C@@H](C)O)C(=O)N[C@@H](CC(C)C)C(=O)N1CCC[C@H]1C(=O)N1CCC[C@H]1C(=O)N[C@H](C(=O)N[C@@H](CC(N)=O)C(=O)N[C@H](C(=O)NCC(=O)N[C@@H](CO)C(=O)N[C@@H](CC(N)=O)C(=O)N[C@H](C(=O)N1CCC[C@H]1C(N)=O)[C@@H](C)O)C(C)C)[C@@H](C)O [PD188] ({C20 diacid-AEEA-AEEA-γGlu}-KCNTATCATQRLADFLRHSSNNLKPILPPTNVGSNTP-NH2; disulfide 2-7 (inferred))
3,0.074,CC[C@H](C)[C@H](NC(=O)[C@@H]1CCCN1C(=O)[C@H](CCCCN)NC(=O)[C@H](CC(C)C)NC(=O)[C@H](CC(N)=O)NC(=O)[C@H](CC(N)=O)NC(=O)[C@H](CO)NC(=O)[C@H](CO)NC(=O)[C@H](Cc1c[nH]cn1)NC(=O)[C@H](CCCNC(=N)N)NC(=O)[C@H](CC(C)C)NC(=O)[C@H](Cc1ccccc1)NC(=O)[C@H](CC(=O)O)NC(=O)[C@H](C)NC(=O)[C@H](CC(C)C)NC(=O)[C@H](CCCNC(=N)N)NC(=O)[C@H](CCC(N)=O)NC(=O)[C@@H](NC(=O)[C@H](C)NC(=O)[C@@H]1CSSC[C@H](NC(=O)[C@H](CCCCN)NC(=O)[C@H](CC(=O)O)NC(=O)COCCOCCNC(=O)COCCOCCNC(=O)CCCCCCCCCCCCCCCCCCC(=O)O)C(=O)N[C@@H](CC(N)=O)C(=O)N[C@@H]([C@@H](C)O)C(=O)N[C@@H](C)C(=O)N[C@@H]([C@@H](C)O)C(=O)N1)[C@@H](C)O)C(=O)N[C@@H](CC(C)C)C(=O)N1CCC[C@H]1C(=O)N1CCC[C@H]1C(=O)N[C@H](C(=O)N[C@@H](CC(N)=O)C(=O)N[C@H](C(=O)NCC(=O)N[C@@H](CO)C(=O)N[C@@H](CC(N)=O)C(=O)N[C@H](C(=O)N1CCC[C@H]1C(N)=O)[C@@H](C)O)C(C)C)[C@@H](C)O [PD194] ({C20 diacid-AEEA-AEEA}-DKCNTATCATQRLADFLRHSSNNLKPILPPTNVGSNTP-NH2; disulfide 3-8 (inferred))

# The remaining lines, values behind:
row,Compound,EC50 [nM]
1,CC[C@H](C)[C@H](NC(=O)[C@@H]1CCCN1C(=O)[C@H](CCCCN)NC(=O)[C@H](CC(C)C)NC(=O)[C@H](CC(N)=O)NC(=O)[C@H](CC(N)=O)NC(=O)[C@H](CO)NC(=O)[C@H](CO)NC(=O)[C@H](Cc1c[nH]cn1)NC(=O)[C@H](CCCNC(=N)N)NC(=O)[C@H](CC(C)C)NC(=O)[C@H](Cc1ccccc1)NC(=O)[C@H](CC(=O)O)NC(=O)[C@H](C)NC(=O)[C@H](CC(C)C)NC(=O)[C@H](CCCNC(=N)N)NC(=O)[C@H](CCC(N)=O)NC(=O)[C@@H](NC(=O)[C@H](C)NC(=O)[C@@H]1CSSC[C@H](NC(=O)[C@H](CCCCN)NC(=O)C2CCN(C(=O)COCCOCCNC(=O)COCCOCCNC(=O)CCCCCCCCCCCCCCCCCCC(=O)O)CC2)C(=O)N[C@@H](CC(N)=O)C(=O)N[C@@H]([C@@H](C)O)C(=O)N[C@@H](C)C(=O)N[C@@H]([C@@H](C)O)C(=O)N1)[C@@H](C)O)C(=O)N[C@@H](CC(C)C)C(=O)N1CCC[C@H]1C(=O)N1CCC[C@H]1C(=O)N[C@H](C(=O)N[C@@H](CC(N)=O)C(=O)N[C@H](C(=O)NCC(=O)N[C@@H](CO)C(=O)N[C@@H](CC(N)=O)C(=O)N[C@H](C(=O)N1CCC[C@H]1C(N)=O)[C@@H](C)O)C(C)C)[C@@H](C)O [PD192] ({C20 diacid-AEEA-AEEA-Inp}-KCNTATCATQRLADFLRHSSNNLKPILPPTNVGSNTP-NH2; disulfide 2-7 (inferred)),0.087
2,CC[C@H](C)[C@H](NC(=O)[C@@H]1CCCN1C(=O)[C@H](CCCCN)NC(=O)[C@H](CC(C)C)NC(=O)[C@H](CC(N)=O)NC(=O)[C@H](CC(N)=O)NC(=O)[C@H](CO)NC(=O)[C@H](CO)NC(=O)[C@H](Cc1c[nH]cn1)NC(=O)[C@H](CCCNC(=N)N)NC(=O)[C@H](CC(C)C)NC(=O)[C@H](Cc1ccccc1)NC(=O)[C@H](CC(=O)O)NC(=O)[C@H](C)NC(=O)[C@H](CC(C)C)NC(=O)[C@H](CCCNC(=N)N)NC(=O)[C@H](CCC(N)=O)NC(=O)[C@@H](NC(=O)[C@H](C)NC(=O)[C@@H]1CSSC[C@H](NC(=O)[C@H](CCCCN)NC(=O)COCCOCCNC(=O)COCCOCCNC(=O)[C@H](CC(=O)O)NC(=O)CCCCCCCCCCCCCCCCCCC(=O)O)C(=O)N[C@@H](CC(N)=O)C(=O)N[C@@H]([C@@H](C)O)C(=O)N[C@@H](C)C(=O)N[C@@H]([C@@H](C)O)C(=O)N1)[C@@H](C)O)C(=O)N[C@@H](CC(C)C)C(=O)N1CCC[C@H]1C(=O)N1CCC[C@H]1C(=O)N[C@H](C(=O)N[C@@H](CC(N)=O)C(=O)N[C@H](C(=O)NCC(=O)N[C@@H](CO)C(=O)N[C@@H](CC(N)=O)C(=O)N[C@H](C(=O)N1CCC[C@H]1C(N)=O)[C@@H](C)O)C(C)C)[C@@H](C)O [PD193] ({C20 diacid}-D[AEEA][AEEA]KCNTATCATQRLADFLRHSSNNLKPILPPTNVGSNTP-NH2; disulfide 5-10 (inferred)),0.074
